21 compounds from patent publication US20020068827A1, “Quinoline-4-carboxamide derivatives, their preparation and their use as neurokinin 3 ( NK-3 ) - and neurokinin 2 ( NK-3 ) receptor antagonists” (SmithKline Beecham S.p.A., priority 1995, published 2002) can be followed below.

The target in data set [1] is T1, human neurokinin-3 receptors expressed in CHO cell lines (Homo sapiens, UniProt P29371).
T1 construct: expressed in transfected cells; host or cells: CHO cells
T1 sequence (P29371 1-465): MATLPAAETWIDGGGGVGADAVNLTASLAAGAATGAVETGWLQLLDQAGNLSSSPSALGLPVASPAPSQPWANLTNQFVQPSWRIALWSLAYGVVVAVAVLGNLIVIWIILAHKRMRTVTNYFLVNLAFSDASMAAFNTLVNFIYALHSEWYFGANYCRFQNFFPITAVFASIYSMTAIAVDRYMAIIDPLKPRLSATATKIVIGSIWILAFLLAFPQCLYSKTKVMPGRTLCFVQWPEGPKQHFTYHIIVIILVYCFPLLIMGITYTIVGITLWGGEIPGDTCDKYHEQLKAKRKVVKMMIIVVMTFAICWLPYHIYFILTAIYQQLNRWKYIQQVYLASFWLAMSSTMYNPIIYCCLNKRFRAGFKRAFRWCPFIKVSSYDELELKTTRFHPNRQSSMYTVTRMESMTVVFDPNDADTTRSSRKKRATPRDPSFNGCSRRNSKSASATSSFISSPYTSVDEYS
Put plainly: Binding affinity in hNK-3-CHO. The settings on record: human NK-3 receptors in CHO cell lines; radioligand [125I]-[Me-Phe7]-NKB. How it is done: The activity of the compounds of the present invention, as NK3 ligands, is determined by their ability to inhibit the binding of the radiolabelled NK3 ligands. [^125I]-[Me-Phe^7]-NKB or [^3H]-Senktide, to guinea-pig and human NK3 receptors (Renzetti et al. 1991, Neuropeptide, 18, 104-114; Buell et al, 1992, FEBS, 299(1), 90-95; Chung et al, 1994, Biochem. Biophys. Res. Commun., 198(3), 967-972).
The binding assays utilized allow the determination of the concentration of the individual compound required to reduce by 50% the [^125I]-[Me-Phe^7]-NKB and [^3H]-Senktide specific binding to NK3 receptor in equilibrium conditions (IC50).
Binding assays provide for each compound tested a mean IC50 value of 2-5 separate experiments performed in duplicate or triplicate. […] The NK3-antagonist activity of the compounds of the present invention is determined by their ability to inhibit senktide-induced contraction of the guinea-pig ileum (Maggi et al, 1990, Br. J. Pharmacol., 101, 996-1000) and rabbit isolated iris sphincter muscle (Hall et al., 1991, Eur. J. Pharmacol., 199, 9-14) and human NK3 receptors-mediated Ca^++ mobilization (Mochizuki et al. 1994, J. Biol. Chem., 269, 9651-9658). Guinea-pig and rabbit in-vitro functional assays provide for each compound tested a mean KB value of 3-8 separate experiments, where KB is the concentration of the individual compound required to produce a 2-fold rightward shift in the concentration-response curve of senktide. Human receptor functional assay allows the determination of the concentration of the individual compound required to reduce by 50% (IC50 values) the Ca^++ mobilization induced by the agonist NKB. In this assay, the compounds of the present invention behave as antagonists.

Structures can show the parent of a compound that is named as a salt.

Turning to `CC[C@H](NC(=O)c1c(OCCN2C(=O)Cc3ccccc3C2=O)c(-c2ccccc2)nc2ccccc12)c1ccccc1` [Example 6, (S)-N-(α-ethylbenzyl)-3-(2-homophthalimidoethoxy)-2-phenylquinoline-4-carboxamide], the melting point (in general, the temperature, or range, at which the solid turns liquid) fell in the range of 159 to 161 °C. In addition, the IC50 (as a rule, the midpoint of a concentration-inhibition curve) in data set [1] is 0.8 nM.
The corresponding values for `CC[C@H](NC(=O)c1c(OCCN2CCc3ccccc3C2=O)c(-c2ccccc2)nc2ccccc12)c1ccccc1` [Example 22, (S)-N-(α-ethylbenzyl)-3-[2-(3,4-dihydro-1(2H)-isoquinolinon-2-yl)ethoxy]-2-phenylquinoline-4-carboxamide] are 71 °C (dec.) and 1.3 nM.
The corresponding values for `CC[C@H](NC(=O)c1c(OCCCN2CCN(c3cccc(Cl)c3)CC2)c(-c2ccccc2)nc2ccccc12)c1ccccc1` [Example 34] are 115 to 135 °C and 0.8 nM.
Regarding `CC[C@H](NC(=O)c1c(OCCCN2CCN(c3ccccc3)CC2)c(-c2ccccc2)nc2ccccc12)c1ccccc1` (as salt: HCl) [Example 33], the melting point is 86 °C (dec.).
`CC[C@H](NC(=O)c1c(CN2CCN(c3ccccc3)CC2)c(-c2ccccc2)nc2ccccc12)c1ccccc1` [Example 30] displayed a melting point of 142 to 145 °C. In addition, in data set [1], the IC50 was found to be 1.1 nM.
Regarding `CC[C@H](NC(=O)c1c(OCCN2Cc3ccccc3CC2=O)c(-c2ccccc2)nc2ccccc12)c1ccccc1` [Example 14, (S)-N-(α-ethylbenzyl)-3-[2-(1,4-dihydro-3(2H)-isoquinolinon-2-yl)ethoxy]-2-phenylquinoline-4-carboxamide], the melting point lay in the range of 153 to 156 °C. The IC50 in data set [1] came to 1.7 nM.
As to `CC[C@H](NC(=O)c1c(OCCCN2CCN(c3ncccn3)CC2)c(-c2ccccc2)nc2ccccc12)c1ccccc1` [Example 40], the IC50 in data set [1] is 1.1 nM.
On to `CC[C@H](NC(=O)c1c(OCCCN2CCN(C)CC2)c(-c2ccccc2)nc2ccccc12)c1ccccc1` [Example 31], for which the IC50 in data set [1] worked out at 3.3 nM.
In turn, `CC[C@H](NC(=O)c1c(OCCCN2C(=O)c3nccnc3C2=O)c(-c2ccccc2)nc2ccccc12)c1ccccc1` [Example 42] had a melting point of 100 to 105 °C. This compound also showed a 50% inhibitory concentration (IC50) in data set [1] of 2.7 nM.
For `CC[C@H](NC(=O)c1c(OCCN2C(=O)CCC2=O)c(-c2ccccc2)nc2ccccc12)c1ccccc1` [Example 15, (S)-N-(α-ethylbenzyl)-3-(2-succinimidoethoxy)-2-phenylquinoline-4-carboxamide], the melting point was 80 °C (dec.).
For the compound `CC[C@H](NC(=O)c1c(OCCN2C(=O)CNC2(C)C)c(-c2ccccc2)nc2ccccc12)c1ccccc1` [Example 17, (S)-N-(α-ethylbenzyl)-3-[2-(2,2-dimethyl-4-oxo-3-imidazolidinyl)ethoxy]-2-phenylquinoline-4-carboxamide], the melting point fell in the range of 160 to 162 °C. Also, in data set [1], the concentration for half-maximal inhibition (IC50) is 3.4 nM.
`CC[C@H](NC(=O)c1c(OCCCN2C(=O)c3ccccc3C2=O)c(-c2ccccc2)nc2ccccc12)c1ccccc1` [Example 9, (S)-N-(α-ethylbenzyl)-3-(3-phthalimidopropoxy)-2-phenylquinoline-4-carboxamide] showed a melting point of 125 to 128 °C. The IC50 in data set [1] came to 3.2 nM.
Take `CC[C@H](NC(=O)c1c(OCCCN2CCN(C)CC2)c(-c2ccccc2)nc2ccccc12)c1ccccc1` (as salt: HCl) [Example 31]: the melting point lay in the range of 160 to 170 °C.
`CC[C@H](NC(=O)c1c(OCCN2C(=O)[C@@H](c3ccccc3)NC2(C)C)c(-c2ccccc2)nc2ccccc12)c1ccccc1` [Example 21, (S)-N-(α-ethylbenzyl)-3-{2-[2,2-dimethyl-5-(R)-phenyl-4-oxo-3-imidazolidinyl]ethoxy}-2-phenylquinoiine-4-carboxamide] showed a melting point of 147 to 150 °C. This compound also returned an IC50 in data set [1] of 0.9 nM.
On to `CC[C@H](NC(=O)c1c(OCCN2Cc3ccccc3C2)c(-c2ccccc2)nc2ccccc12)c1ccccc1.Cl.Cl` [Example 5, (S)-N-(α-ethylbenzyl)-3-[2-(2-isoindolinyl)ethoxy]-2-phenylquinoline-4-carboxamide Dihydrochloride], for which the melting point was 95 °C (dec.). Moreover, in data set [1], the IC50 was 1.2 nM.
In turn, `CC[C@H](NC(=O)c1c(OCCCN2CCN(c3ccccc3)CC2)c(-c2ccccc2)nc2ccccc12)c1ccccc1` [Example 33] showed a 50% inhibitory concentration (IC50) in data set [1] of 0.7 nM.
Still for that read-out and setting: the result for `CC[C@H](NC(=O)c1c(OCCO)c(-c2ccccc2)nc2ccccc12)c1ccccc1` [Example 2, (S)-N-(α-ethylbenzyl)-3-(2-hydroxyethoxy)-2-phenylquinoline-4-carboxamide] reads 1.6 nM.
`CC[C@H](NC(=O)c1c(OCCN2C(=O)C=CC2=O)c(-c2ccccc2)nc2ccccc12)c1ccccc1` [Example 16, (S)-N-(α-ethylbenzyl)-3-(2-maleimidoethoxy)-2-phenylquinoline-4-carboxamide] had a melting point of 74 to 78 °C.
In turn, `CC[C@H](NC(=O)c1c(OCCCN)c(-c2ccccc2)nc2ccccc12)c1ccccc1` [Example 11, (S)-N-(α-ethylbenzyl)-3-(3-aminopropoxy)-2-phenylquinoline-4-carboxamide Hydrochloride] registered a concentration for half-maximal inhibition (IC50) in data set [1] of 2.6 nM.
`CC[C@H](NC(=O)c1c(OCCCN2CCN(c3ncccn3)CC2)c(-c2ccccc2)nc2ccccc12)c1ccccc1` (as salt: HCl) [Example 40]: the melting point is 140 °C (dec.).
Consider `CC[C@H](NC(=O)c1c(OCCCN2CCN(c3ccccc3OC)CC2)c(-c2ccccc2)nc2ccccc12)c1ccccc1.Cl.Cl` [Example 18, (S)-N-(α-ethylbenzyl)-3-{3-[4-(2-methoxyphenyl)piperazin-1-yl]propoxy}-2-phenylquinoline-4-carboxamide Dihydrochloride], for which the melting point was 151 to 155 °C. The compound further yielded a half-inhibitory concentration (IC50) in data set [1] of 0.4 nM.
